In ChEMBL document CHEMBL1201862, “PubChem BioAssay data set” (2004):
Active and inactive are the calls of the source.

Tests used:
[1] = Luminescence Cell-Based Dose Confirmation HTS to Identify Inhibitors of 5'UTR Stem-Loop Driven Alpha-Synuclein mRNA Translation in H4 Neuroglioblastoma Cells. [Related pubchem assays: 1827 (Project Summary), 1813 (Primary HTS)]; assay type: functional
[2] = Luminescence Cell-Based Dose HTS Response to Identify Inhibitors of 5'UTR Stem-Loop Driven Prion Protein mRNA Translation in H4-C Neuroglioblastoma Cells. [Related pubchem assays (depositor defined):AID1814, AID1827]; assay type: functional
[3] = Luminescence Cell-Based Dose Retest to Confirm Activators of 5'UTR Stem-Loop Driven Alpha-Synuclein mRNA Translation in H4 Neuroglioblastoma Cells. [Related pubchem assays (depositor defined):AID1813, AID1829]; assay type: functional
[4] = Luminescence Cell-Based Dose Response HTS to Identify Inhibitors of Luciferase Translation or Activity in H4-C Neuroglioblastoma Cells. [Related pubchem assays: 1813 (Primary HTS), 1827 (Project Summary)]; assay type: functional
[5] = Luminescence Cell-Based Dose Response HTS to Identify Activators of Luciferase Translation or Activity in H4-C Neuroglioblastoma Cells. [Related pubchem assays: 1829 (Project Summary), 1814 (Primary HTS)]; assay type: functional
[6] = Luminescence Cell-Based Dose Response HTS to Identify Activators of 5'UTR Stem-Loop Driven Prion Protein mRNA Translation in H4-C Neuroglioblastoma Cells. [Related pubchem assays: 1829 (Project Summary), 1814 (Primary HTS)]; assay type: functional
[7] = Luminescence Cell-Based Dose Response HTS to Identify Inhibitors of 5'UTR Stem-Loop Driven Prion Protein mRNA Translation in H4 Neuroglioblastoma Cells. [Related pubchem assays: 1827 (Project Summary), 1813 (Primary HTS)]; assay type: functional
[8] = luciferase reporter signal suppression in cells – H4 neuroglioma cells, luminescence, dose response (AID 1990); assay type: functional, cell-based
[9] = molecular target: T1, Intestinal-type alkaline phosphatase (Homo sapiens, UniProt P09923); assay: human intestinal alkaline phosphatase activators, dose response, biochemical, luminescence, uHTS hits (AID 463120); assay type: functional
[10] = alpha-synuclein stem-loop luciferase translation blockers – H4 neuroglioma cells, luminescence, confirmation (AID 1988); assay type: functional, cell-based
[11] = molecular target: T1, Intestinal-type alkaline phosphatase; assay: activation of human intestinal alkaline phosphatase – biochemical, dose response (AID 488873); assay type: functional
[12] = molecular target: Intestinal-type alkaline phosphatase (Mus musculus, UniProt P24822); assay: mouse intestinal alkaline phosphatase activators, dose response, biochemical, luminescence, uHTS hits (AID 488783); assay type: functional
[13] = molecular target: T2, Alkaline phosphatase, tissue-nonspecific isozyme (Homo sapiens, UniProt P05186); assay: activation of tissue-nonspecific alkaline phosphatase – biochemical, TNAP isozyme, mouse IAP uHTS hits, selectivity assay for mouse IAP activator project, dose response (AID 488880); assay type: functional
T2 sequence (P05186 whole entry): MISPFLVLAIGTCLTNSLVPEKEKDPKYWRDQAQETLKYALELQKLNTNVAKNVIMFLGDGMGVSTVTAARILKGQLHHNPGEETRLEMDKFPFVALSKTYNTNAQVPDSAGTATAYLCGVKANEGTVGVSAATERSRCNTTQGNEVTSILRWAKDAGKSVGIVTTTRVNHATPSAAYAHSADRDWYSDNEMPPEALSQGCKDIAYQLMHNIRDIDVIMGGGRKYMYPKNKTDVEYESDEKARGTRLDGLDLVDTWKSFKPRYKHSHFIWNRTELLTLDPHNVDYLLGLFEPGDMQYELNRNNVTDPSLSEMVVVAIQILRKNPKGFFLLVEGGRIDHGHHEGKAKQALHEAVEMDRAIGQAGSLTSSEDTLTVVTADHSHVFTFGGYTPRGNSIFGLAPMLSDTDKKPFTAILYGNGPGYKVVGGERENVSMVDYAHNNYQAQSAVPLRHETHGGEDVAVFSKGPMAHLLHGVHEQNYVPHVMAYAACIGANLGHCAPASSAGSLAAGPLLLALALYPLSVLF

[14] = molecular target: T3, Zinc finger protein mex-5 (Caenorhabditis elegans, UniProt Q9XUB2); assay: potency of MEX-5 RNA-binding blockers – biochemical, C. elegans, fluorescence polarization, dose response (AID 1960)
T3 sequence (Q9XUB2 whole entry): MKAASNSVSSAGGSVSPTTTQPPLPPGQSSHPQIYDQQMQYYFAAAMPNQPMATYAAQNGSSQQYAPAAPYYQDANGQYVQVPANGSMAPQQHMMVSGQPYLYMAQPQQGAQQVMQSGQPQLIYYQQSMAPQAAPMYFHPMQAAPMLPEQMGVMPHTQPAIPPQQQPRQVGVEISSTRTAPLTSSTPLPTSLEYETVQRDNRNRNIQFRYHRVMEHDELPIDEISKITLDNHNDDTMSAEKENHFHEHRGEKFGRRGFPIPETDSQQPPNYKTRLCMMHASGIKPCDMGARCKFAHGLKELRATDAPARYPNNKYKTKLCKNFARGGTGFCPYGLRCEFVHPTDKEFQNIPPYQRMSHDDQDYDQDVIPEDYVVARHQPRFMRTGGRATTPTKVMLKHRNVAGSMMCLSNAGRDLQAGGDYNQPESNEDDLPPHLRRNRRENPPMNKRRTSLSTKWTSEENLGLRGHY

Large T antigen = Large T antigen (Simian virus 40, UniProt P03070); assay type: functional, Betapolyomavirus macacae;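 also: Confirmatory-stage PubChem screen for compounds that inhibit SV40 T antigen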
[15] = molecular target: T4, RNA-binding protein pos-1 (Caenorhabditis elegans, UniProt G5EF15); assay: disruptors of C. elegans POS-1 RNA interaction – biochemical, fluorescence polarization, dose response (AID 1964);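 also: purified POS-1 fused to maltose binding protein made in E. coli; potency of compounds blocking POS-1 binding to fluorescent RNA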
T4 sequence (G5EF15 whole entry): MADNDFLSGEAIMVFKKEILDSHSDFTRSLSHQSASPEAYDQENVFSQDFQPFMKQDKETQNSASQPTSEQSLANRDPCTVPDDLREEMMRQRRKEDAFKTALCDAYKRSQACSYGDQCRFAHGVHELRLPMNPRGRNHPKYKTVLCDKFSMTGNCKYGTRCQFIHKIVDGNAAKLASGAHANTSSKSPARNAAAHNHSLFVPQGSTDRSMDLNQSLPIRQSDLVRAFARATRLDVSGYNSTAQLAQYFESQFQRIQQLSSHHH

Estrogen receptor [16] = molecular target: T5, Estrogen receptor (Homo sapiens, UniProt P03372);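 also: potency for inhibiting coactivator peptide recruitment to the receptor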
T5 sequence (P03372 whole entry): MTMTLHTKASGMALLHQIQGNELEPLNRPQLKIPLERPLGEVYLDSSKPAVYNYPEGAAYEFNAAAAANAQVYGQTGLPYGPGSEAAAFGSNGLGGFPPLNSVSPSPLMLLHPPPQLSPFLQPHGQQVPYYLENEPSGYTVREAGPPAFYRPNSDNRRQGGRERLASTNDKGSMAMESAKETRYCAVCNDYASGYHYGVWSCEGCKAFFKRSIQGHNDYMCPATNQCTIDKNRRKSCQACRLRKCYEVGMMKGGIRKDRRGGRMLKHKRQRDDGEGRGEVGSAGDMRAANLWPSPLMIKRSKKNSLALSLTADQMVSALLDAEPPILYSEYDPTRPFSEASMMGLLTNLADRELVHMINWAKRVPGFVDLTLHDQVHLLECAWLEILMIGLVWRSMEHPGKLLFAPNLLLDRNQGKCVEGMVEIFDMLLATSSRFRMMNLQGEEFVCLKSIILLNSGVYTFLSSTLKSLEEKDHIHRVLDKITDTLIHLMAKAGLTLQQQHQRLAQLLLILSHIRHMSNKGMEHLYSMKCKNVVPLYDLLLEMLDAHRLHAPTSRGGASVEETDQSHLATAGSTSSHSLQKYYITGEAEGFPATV

Estrogen receptor [17] = molecular target: T5, Estrogen receptor; assay: ERα coactivator recruitment enhancers – biochemical, TR-FRET, ERα LBD, dose response (AID 737)
SUMO-activating enzyme [18] = molecular target: T6, SUMO-activating enzyme (Homo sapiens, UniProt Q9UBT2); assay: blockers of SAE1/SAE2–UBC9 SUMO transfer – biochemical, HTRF, uHTS, primary screen (AID 2006); assay type: protein-complex assay
SUMO-activating enzyme [19] = molecular target: T6, SUMO-activating enzyme; assay: blockers of UBC9-mediated SUMO conjugation – biochemical, AlphaScreen, SUMOylation inhibitor project, confirmation (AID 2018); assay type: functional
Cannabinoid receptor 2 [20] = molecular target: T7, Cannabinoid receptor 2 (Homo sapiens, UniProt P34972); assay: SAR analysis of antagonists of the Cannabinoid Receptor 2 using an Image-Based Assay - Set 2. [Related pubchem assays (depositor defined):AID1961, AID1965]; assay type: functional
Cannabinoid receptor 1 = Cannabinoid receptor 1 (Homo sapiens, UniProt P21554); assay: SAR analysis of antagonists of the Cannabinoid Receptor 1 using an Image-Based Assay. [Related pubchem assays (depositor defined):AID1961, AID1965]; assay type: functional
[21] = molecular target: T8, G-protein coupled receptor 55 (Homo sapiens, UniProt Q9Y2T6); assay: selective activators of receptor GPR55 – imaging, U2OS cells, beta-arrestin-GFP redistribution, primary screen (AID 1961); assay type: functional
[22] = molecular target: T8, G-protein coupled receptor 55; assay: SAR analysis of selective Agonists of GPR55 using an Image-Based Assay. [Related pubchem assays (depositor defined):AID1961, AID1965]; assay type: functional
Cannabinoid receptor 2 [23] = molecular target: T7, Cannabinoid receptor 2; assay: SAR analysis of agonists of the Cannabinoid Receptor 2 using an Image-Based Assay - Set 2. [Related pubchem assays (depositor defined):AID1961, AID1965]; assay type: functional
[24] = molecular target: T9, Kappa-type opioid receptor (Homo sapiens, UniProt P41145); assay: SAR analysis of Antagonists of the Kappa Opioid Receptor (KOR) using an Image-Based Assay - Set 2. [Related pubchem assays (depositor defined):AID1777, AID1785, AID1786, AID1966, AID2133, AID2136, AID2284, AID2285, AID2348]; assay type: functional
Mu-type opioid receptor [25] = molecular target: T10, Mu-type opioid receptor (Homo sapiens, UniProt P35372); assay: SAR Analysis of Agonists of the MOR Receptor using an Image-Based Assay - Set 2. [Related pubchem assays (depositor defined):AID1777, AID1785, AID1786, AID1966, AID2133, AID2136, AID2284, AID2285, AID2352]; assay type: functional
Mu-type opioid receptor [26] = molecular target: T10, Mu-type opioid receptor; assay: SAR Analysis of Antagonists of the MOR Receptor using an Image-Based Assay - Set 2. [Related pubchem assays (depositor defined):AID1777, AID1785, AID1786, AID1966, AID2133, AID2136, AID2284, AID2285, AID2420]; assay type: functional
[27] = molecular target: T11, Delta-type opioid receptor (Homo sapiens, UniProt P41143); assay: SAR Analysis of Antagonists of the DOR Receptor using an Image-Based Assay - Set 2. [Related pubchem assays (depositor defined):AID1777, AID1785, AID1786, AID1966, AID2133, AID2136, AID2284, AID2285, AID2357]; assay type: functional
[28] = molecular target: T9, Kappa-type opioid receptor; assay: SAR analysis of small molecule agonists of the kappa opioid receptor via a luminescent beta-arrestin assay - Set 2. [Related pubchem assays (depositor defined):AID1777, AID1785, AID1786, AID1966, AID2133, AID2136, AID2284, AID449737]; assay type: functional
[29] = molecular target: T11, Delta-type opioid receptor; assay: SAR Analysis of Agonists of the DOR Receptor using an Image-Based Assay - Set 2. [Related pubchem assays (depositor defined):AID1777, AID1785, AID1786, AID1966, AID2133, AID2136, AID2284, AID2285, AID2370]; assay type: functional
[30] = molecular target: T9, Kappa-type opioid receptor; assay: SAR analysis of Agonists of the Kappa Opioid Receptor (KOR) using an Image-Based Assay - Set 2. [Related pubchem assays (depositor defined):AID1777, AID1786, AID1966, AID2133, AID2136, AID2284, AID2285, AID2359]; assay type: functional
[31] = molecular target: Voltage-dependent T-type calcium channel subunit alpha-1H (Homo sapiens, UniProt O95180); assay: human CACNA1H calcium influx blockade – cell-based, synthetic library set 2, HEK293 HH8, Fluo-4, SAR follow-up (AID 493023); assay type: functional

T9 sequence (P41145 whole entry): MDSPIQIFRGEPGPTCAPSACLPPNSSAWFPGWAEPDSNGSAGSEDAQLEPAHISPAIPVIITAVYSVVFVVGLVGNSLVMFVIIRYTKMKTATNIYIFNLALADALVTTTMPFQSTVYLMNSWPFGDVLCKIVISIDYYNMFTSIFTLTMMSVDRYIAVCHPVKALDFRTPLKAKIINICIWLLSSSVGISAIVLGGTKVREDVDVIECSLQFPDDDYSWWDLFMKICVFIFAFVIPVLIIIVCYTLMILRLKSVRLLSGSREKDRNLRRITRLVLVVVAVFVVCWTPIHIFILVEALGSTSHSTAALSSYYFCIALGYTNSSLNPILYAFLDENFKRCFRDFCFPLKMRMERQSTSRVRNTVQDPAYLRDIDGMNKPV
T6 sequence (Q9UBE0 whole entry): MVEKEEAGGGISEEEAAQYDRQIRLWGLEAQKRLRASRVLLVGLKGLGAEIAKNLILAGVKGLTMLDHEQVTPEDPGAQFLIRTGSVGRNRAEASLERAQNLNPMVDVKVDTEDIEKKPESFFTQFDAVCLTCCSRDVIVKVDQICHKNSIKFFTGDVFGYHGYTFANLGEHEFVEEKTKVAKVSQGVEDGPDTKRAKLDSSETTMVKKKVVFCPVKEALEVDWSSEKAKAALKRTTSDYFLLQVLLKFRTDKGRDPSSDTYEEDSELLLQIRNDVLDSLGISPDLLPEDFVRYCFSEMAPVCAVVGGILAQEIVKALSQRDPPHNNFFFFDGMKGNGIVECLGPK
T6 sequence (Q9UBT2 whole entry): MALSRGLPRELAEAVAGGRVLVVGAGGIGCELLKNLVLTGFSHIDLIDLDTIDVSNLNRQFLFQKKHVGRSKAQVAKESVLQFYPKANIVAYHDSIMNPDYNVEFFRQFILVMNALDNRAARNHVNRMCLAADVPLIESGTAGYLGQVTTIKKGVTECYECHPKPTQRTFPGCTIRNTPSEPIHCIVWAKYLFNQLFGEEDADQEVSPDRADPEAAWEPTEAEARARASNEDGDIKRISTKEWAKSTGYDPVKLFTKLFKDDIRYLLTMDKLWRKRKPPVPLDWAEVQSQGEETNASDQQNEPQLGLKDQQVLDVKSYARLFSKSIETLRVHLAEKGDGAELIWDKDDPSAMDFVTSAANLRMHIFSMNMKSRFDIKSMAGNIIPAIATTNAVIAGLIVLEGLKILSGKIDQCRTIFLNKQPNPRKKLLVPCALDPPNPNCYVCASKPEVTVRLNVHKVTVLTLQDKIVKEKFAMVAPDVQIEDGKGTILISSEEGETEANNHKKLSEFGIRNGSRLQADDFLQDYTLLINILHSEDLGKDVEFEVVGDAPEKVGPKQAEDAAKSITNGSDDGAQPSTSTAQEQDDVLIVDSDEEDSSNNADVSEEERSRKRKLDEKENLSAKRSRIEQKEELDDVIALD
T10 sequence (P35372 whole entry): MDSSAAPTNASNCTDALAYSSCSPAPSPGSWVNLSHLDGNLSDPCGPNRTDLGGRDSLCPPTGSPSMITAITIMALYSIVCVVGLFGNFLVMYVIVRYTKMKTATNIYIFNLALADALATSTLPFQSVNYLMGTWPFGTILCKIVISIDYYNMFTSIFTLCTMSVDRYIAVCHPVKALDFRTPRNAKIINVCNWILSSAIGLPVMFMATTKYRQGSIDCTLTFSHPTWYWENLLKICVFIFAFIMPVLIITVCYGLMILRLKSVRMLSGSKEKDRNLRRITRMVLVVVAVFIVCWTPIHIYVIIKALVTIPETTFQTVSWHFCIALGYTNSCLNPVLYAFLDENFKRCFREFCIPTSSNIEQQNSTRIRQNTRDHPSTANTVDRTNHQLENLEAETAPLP
T7 sequence (P34972 whole entry): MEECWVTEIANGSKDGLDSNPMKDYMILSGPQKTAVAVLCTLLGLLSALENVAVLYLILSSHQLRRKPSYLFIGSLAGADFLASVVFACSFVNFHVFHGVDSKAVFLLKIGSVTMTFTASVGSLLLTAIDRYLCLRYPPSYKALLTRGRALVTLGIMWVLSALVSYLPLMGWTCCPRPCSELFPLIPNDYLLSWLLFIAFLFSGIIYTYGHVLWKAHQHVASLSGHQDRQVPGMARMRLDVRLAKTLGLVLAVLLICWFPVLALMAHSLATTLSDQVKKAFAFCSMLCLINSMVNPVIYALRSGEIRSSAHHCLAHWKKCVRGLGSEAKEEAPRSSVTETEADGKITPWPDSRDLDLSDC
T1 sequence (P09923 whole entry): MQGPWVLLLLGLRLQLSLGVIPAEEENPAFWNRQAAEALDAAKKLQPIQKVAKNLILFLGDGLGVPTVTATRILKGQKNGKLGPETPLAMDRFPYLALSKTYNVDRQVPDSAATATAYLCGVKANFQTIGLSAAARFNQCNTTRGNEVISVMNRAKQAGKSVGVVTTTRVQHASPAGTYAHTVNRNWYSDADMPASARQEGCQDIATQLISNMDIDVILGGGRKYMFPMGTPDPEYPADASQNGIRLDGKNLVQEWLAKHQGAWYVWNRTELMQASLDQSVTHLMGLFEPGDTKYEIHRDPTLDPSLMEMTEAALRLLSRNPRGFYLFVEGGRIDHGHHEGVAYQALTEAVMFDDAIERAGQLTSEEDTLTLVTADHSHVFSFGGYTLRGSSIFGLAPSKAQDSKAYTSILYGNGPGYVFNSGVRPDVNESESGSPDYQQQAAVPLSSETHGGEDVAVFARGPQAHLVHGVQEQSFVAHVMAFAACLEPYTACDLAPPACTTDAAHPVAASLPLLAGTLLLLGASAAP
T8 sequence (Q9Y2T6 whole entry): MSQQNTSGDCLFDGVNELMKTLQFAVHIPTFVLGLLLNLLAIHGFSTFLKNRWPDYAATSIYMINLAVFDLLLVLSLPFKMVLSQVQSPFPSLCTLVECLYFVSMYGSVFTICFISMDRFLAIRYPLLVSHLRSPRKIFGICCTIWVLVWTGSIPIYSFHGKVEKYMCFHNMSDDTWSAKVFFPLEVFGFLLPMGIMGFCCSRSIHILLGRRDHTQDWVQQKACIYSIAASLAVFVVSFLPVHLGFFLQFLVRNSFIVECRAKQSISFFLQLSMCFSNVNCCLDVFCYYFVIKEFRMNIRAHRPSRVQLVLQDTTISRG
T11 sequence (P41143 whole entry): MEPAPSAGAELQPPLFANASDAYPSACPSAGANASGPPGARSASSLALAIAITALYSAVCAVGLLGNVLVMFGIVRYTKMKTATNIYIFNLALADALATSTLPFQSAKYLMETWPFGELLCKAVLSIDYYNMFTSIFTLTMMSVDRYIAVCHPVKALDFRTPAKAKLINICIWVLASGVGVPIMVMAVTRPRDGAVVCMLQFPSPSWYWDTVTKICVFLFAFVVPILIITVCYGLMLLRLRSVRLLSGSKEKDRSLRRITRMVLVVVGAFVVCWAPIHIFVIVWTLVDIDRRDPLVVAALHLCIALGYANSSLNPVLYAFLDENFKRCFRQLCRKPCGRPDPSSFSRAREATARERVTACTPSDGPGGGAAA
Intestinal-type alkaline phosphatase (Mus musculus, UniProt P24822), sequence (P24822 whole entry): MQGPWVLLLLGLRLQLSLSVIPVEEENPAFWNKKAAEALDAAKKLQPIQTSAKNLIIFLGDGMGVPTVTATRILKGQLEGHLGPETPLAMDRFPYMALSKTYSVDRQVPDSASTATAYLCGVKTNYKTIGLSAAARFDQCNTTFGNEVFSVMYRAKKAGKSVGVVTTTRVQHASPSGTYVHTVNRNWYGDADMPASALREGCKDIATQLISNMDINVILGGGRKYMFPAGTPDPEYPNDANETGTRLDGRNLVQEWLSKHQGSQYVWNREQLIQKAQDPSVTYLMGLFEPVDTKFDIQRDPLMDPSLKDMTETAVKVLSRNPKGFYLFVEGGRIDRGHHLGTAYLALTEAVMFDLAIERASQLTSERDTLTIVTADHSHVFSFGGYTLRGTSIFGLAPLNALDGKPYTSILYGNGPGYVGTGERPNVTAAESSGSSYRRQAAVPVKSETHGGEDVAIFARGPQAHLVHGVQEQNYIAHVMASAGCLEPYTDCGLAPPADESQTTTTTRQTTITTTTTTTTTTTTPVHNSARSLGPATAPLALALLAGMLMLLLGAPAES
Large T antigen, sequence (P03070 whole entry, the tested form may be a part): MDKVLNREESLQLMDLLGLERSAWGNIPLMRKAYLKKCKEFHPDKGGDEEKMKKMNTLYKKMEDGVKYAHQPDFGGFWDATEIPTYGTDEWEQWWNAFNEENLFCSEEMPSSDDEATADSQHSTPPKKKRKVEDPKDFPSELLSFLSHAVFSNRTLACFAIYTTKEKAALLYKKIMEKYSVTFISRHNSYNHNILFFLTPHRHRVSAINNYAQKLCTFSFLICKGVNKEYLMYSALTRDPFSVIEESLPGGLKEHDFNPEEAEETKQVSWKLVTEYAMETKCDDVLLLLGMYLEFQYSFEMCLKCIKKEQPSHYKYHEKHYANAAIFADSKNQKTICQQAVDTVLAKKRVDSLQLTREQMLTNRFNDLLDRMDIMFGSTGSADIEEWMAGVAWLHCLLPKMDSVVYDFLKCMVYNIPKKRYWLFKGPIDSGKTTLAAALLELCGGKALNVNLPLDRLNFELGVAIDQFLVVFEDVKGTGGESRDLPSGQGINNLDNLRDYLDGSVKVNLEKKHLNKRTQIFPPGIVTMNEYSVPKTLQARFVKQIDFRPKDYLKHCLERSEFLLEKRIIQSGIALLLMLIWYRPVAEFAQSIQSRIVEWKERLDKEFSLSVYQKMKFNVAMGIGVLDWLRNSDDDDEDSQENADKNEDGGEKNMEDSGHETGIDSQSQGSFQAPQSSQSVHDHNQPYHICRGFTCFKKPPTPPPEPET

CC[n+]1c(/C=C/C=C/c2ccc(N(C)C)cc2)sc2ccccc21
EC50 [1]: 26.3 µM (active) | EC50 [2]: 1.54 µM (active) | EC50 [3]: 26.3 µM (inconclusive) | EC50 [4]: 2.69 µM (active) | EC50 [5]: 2.69 µM (inconclusive) | EC50 [6]: 1.54 µM (inconclusive)

N#CCN1C(=S)N=C(Nc2cccc(Cl)c2)C12CCCCC2
EC50 [7]: > 120 µM (not active) | EC50 [8]: > 120 µM (not active) | EC50 [9]: > 100 µM (inactive) | EC50 [10]: > 120 µM (not active)

Oc1ccc(-c2csc(Nc3ccccn3)n2)cc1O
EC50 [11]: 48.7 µM (active) | EC50 [12]: 24.9 µM (active) | EC50 [13]: 47.9 µM (active) | EC50 [14]: 17.3 µM (active) | IC50 (Large T antigen): 51.7 µM (active) | EC50 [15]: 74.1 µM (active)

O=c1cc(CSc2nnnn2-c2ccccc2)nc(Nc2ccc(F)cc2)[nH]1
IC50 (Estrogen receptor [16]): > 50 µM (not active) | EC50 (Estrogen receptor [17]): 12.5 µM (active) | IC50 (SUMO-activating enzyme [18]): 6.47 µM (active) | IC50 (SUMO-activating enzyme [19]): 11.5 µM (active)

COc1ccc(S(=O)(=O)N2CCOCC2)cc1NC(=O)c1cc2c(s1)CCCC2
IC50 (Cannabinoid receptor 2 [20]): > 32 µM (inactive) | IC50 (Cannabinoid receptor 1): > 32 µM (inactive) | EC50 [21]: 0.524 µM (active) | EC50 [22]: 0.305 µM (active) | EC50 (Cannabinoid receptor 2 [23]): > 32 µM (inactive)

Cc1ccc(CSc2nnc(-c3ccccn3)n2Cc2ccco2)cc1
IC50 [24]: > 32 µM (inactive) | EC50 (Mu-type opioid receptor [25]): > 32 µM (inactive) | IC50 (Mu-type opioid receptor [26]): > 32 µM (inactive) | IC50 [27]: > 32 µM (inactive) | EC50 [28]: 6.21 µM (active) | EC50 [29]: > 32 µM (inactive) | EC50 [30]: 5.21 µM (active)

O=C(N[C@@H]1CCCN(Cc2ccccc2)C1)c1cc(Cl)cc(Cl)c1
EC50 [31]: 10 µM (active)
